Values quoted from earlier work, collected in paper PMC11255275, “Structural insights into the triple agonism at GLP-1R, GIPR and GCGR manifested by retatrutide” (Cell Discovery, 2024).

Experiments:
GIPR = conditions: in addition to GLP-1R; cited from earlier work
From the text: (§1) The most successful treatments currently available include glucagon-like peptide-1 (GLP-1) receptor agonists (GLP-1RAs), exemplified by semaglutide (approved in 2017, $19.9 billion sales in 2023)[3] and tirzepatide (approved in 2022, $5.3 billion sales in 2023)[4].

GLP-1R = conditions: among GLP-1R, GIPR and GCGR; general statement in introduction; cited from earlier work
From the text: as §1

| Substance | receptor activation (GIPR) | receptor activation (GLP-1R) |
| --- | --- | --- |
| tirzepatide | also activates glucose-dependent insulinotropic polypeptide (GIP) receptor (GIPR) |  |
| semaglutide |  | solely activates GLP-1R |
